Consider 9 compounds from ChEMBL document CHEMBL1156716, “Selenium containing heterocycles: synthesis, anti-inflammatory, analgesic and anti-microbial activities of some new 4-cyanopyridazine-3(2H)selenone derivatives” (Eur J Med Chem, 2008).

The test system of series [1] is Mus musculus. The experiment in a line: Analgesic activity in albino mouse assessed as effect on […] at 10 mg/kg, ip after 1 hrs by hot plate test. The series is classed as functional. The following applies: route intraperitoneal. Background: In hot-plate and tail-flick tests a longer latency is read as antinociception.
In series [2] the test system is Mus musculus. The experiment in a line: Analgesic activity in albino mouse assessed as effect on […] at 10 mg/kg, ip after 3 hrs by hot plate test. The series is classed as functional. The note with it: route intraperitoneal.
Series [3] has as its system Mus musculus. The experiment in a line: Analgesic activity in albino mouse assessed as effect on […] at 10 mg/kg, ip after 0.5 hrs by hot plate test. Format: functional. The note with it: route intraperitoneal.
Series [4] relates to Mus musculus. As to the kind of experiment: Analgesic activity in albino mouse assessed as effect on […] at 10 mg/kg, ip after 4 hrs by hot plate test. Format: functional. The following applies: route intraperitoneal.
The test system of series [5] is Mus musculus. The experiment in a line: Analgesic activity in albino mouse assessed as effect on […] at 10 mg/kg, ip after 5 hrs by hot plate test. The series is classed as functional. The note with it: route intraperitoneal.
In series [6] the test system is Mus musculus. As to the kind of experiment: Analgesic activity in albino mouse assessed as effect on […] at 10 mg/kg, ip after 2 hrs by hot plate test. The note with it: route intraperitoneal. Format: functional.
In series [7] the test system is Rattus norvegicus. As to the kind of experiment: Antiinflammatory activity in albino rat assessed as inhibition of carrageenan-induced paw edema at 10 mg/kg, ip after 0.5 hrs. The note with it: route intraperitoneal. The series is classed as functional. Background: Carrageenan injected into the paw causes an acute inflammation.
Series [8] relates to Rattus norvegicus. The experiment in a line: Antiinflammatory activity in albino rat assessed as inhibition of carrageenan-induced paw edema at 10 mg/kg, ip after 2 hrs. The series is classed as functional. The note with it: route intraperitoneal.
In series [9] the test system is Rattus norvegicus. As to the kind of experiment: Antiinflammatory activity in albino rat assessed as inhibition of carrageenan-induced paw edema at 10 mg/kg, ip after 1 hrs. Format: functional. The following applies: route intraperitoneal.
The subject of series [10] is Rattus norvegicus. As to the kind of experiment: Antiinflammatory activity in albino rat assessed as inhibition of carrageenan-induced paw edema at 10 mg/kg, ip after 4 hrs. The series is classed as functional. The following applies: route intraperitoneal.
Series [11] has as its system Rattus norvegicus. As to the kind of experiment: Antiinflammatory activity in albino rat assessed as inhibition of carrageenan-induced paw edema at 10 mg/kg, ip after 3 hrs. Format: functional. The note with it: route intraperitoneal.
Series [12] has as its system Rattus norvegicus. The experiment in a line: Antiinflammatory activity in albino rat assessed as inhibition of carrageenan-induced paw edema at 10 mg/kg, ip after 5 hrs. The series is classed as functional. The note with it: route intraperitoneal.
In series [13] the test system is Mus musculus. As to the kind of experiment: Acute toxicity in ip dosed albino mouse upto 250 mg/kg after 72 hrs. Format: organism-based. Also noted: dose 250 mg/kg, route intraperitoneal. The note with it: in vivo.

Take `CC(=O)Oc1ccccc1C(=O)O` [ASPIRIN]: the Activity in series [1] amounted to 58.9%; in [2], 45.6%; in series [3], 36.2%; in [4], 39.2%; in series [5], 30.01%; in [6], 50.5%.

For the compound `N#Cc1c(-c2ccccc2)c(-c2ccccc2)n[nH]c1=[Se]`, the inhibition in vivo (commonly how much of the control response was suppressed) at 10 mg/kg is 8.8% in series [7]; 20.5% in series [8]; 17.2% in [9]; 30.5% in series [10]; 23.5% in series [11]; 30.5% in series [12].

For the compound `NC(=O)C1=C(N)C2=C(c3ccccc3)C(c3ccccc3)=NNC2[Se]1` (centres undefined), the inhibition in vivo at 10 mg/kg in series [7] came out at 8.7%; in series [8], 26.4%; in series [9], 14.7%; in series [10], 47.2%; in series [11], 44.4%; in series [12], 50%. Further, the Activity is given as 97.8% in [1]; 98.4% in series [2]; 90.3% in series [3]; “Non-toxic” in series [13]; 90.5% in series [4]; 83.4% in series [5]. In [6], the Activity was 99.4%.

Consider `O=C1NC2(CCCCC2)NC2=C1[Se]C1NN=C(c3ccccc3)C(c3ccccc3)=C21` (centres undefined), for which the inhibition in vivo at 10 mg/kg in [7] was 8.7%; in [8], 23.5%; in series [9], 9.9%; in series [10] it was 30.5%; in series [11] it was 23.5%; in series [12], 38.8%.

Turning to `CCOC(=O)C1=C(N)C2=C(c3ccccc3)C(c3ccccc3)=NNC2[Se]1` (centres undefined), the inhibition in vivo at 10 mg/kg in series [7] amounted to 8.8%; in [8], 23.5%; in series [9] it was 17.2%; in series [10], 41.6%; in series [11], 35.2%; in [12] it was 44.4%. Moreover, the Activity in [1] worked out at 42.8%; in series [2] it was 41.3%; in [3], 21.6%; in series [4], 39.6%; in series [5] it was 33.4%; in [6], 39.8%.

For the compound `CC(=O)C1=C(N)C2=C(c3ccccc3)C(c3ccccc3)=NNC2[Se]1` (centres undefined), the inhibition in vivo at 10 mg/kg in series [7] was 8.8%; in series [8] it was 20.5%; in series [9], 17.2%; in series [10], 28.5%; in series [11], 20.5%; in series [12], 33.5%.

Take `NC1=C(C(=O)c2ccccc2)[Se]C2NN=C(c3ccccc3)C(c3ccccc3)=C12` (centres undefined): the inhibition in vivo at 10 mg/kg was found to be 9% in series [7]; 26.4% in [8]; 9% in series [9]; 35.5% in series [10]; 29.4% in series [11]; 38.8% in series [12]. In addition, the Activity in [1] is 27.1%; in [2], 36.5%; in series [3], 25.2%; in series [4] it was 31.9%; in series [5] it was 24.2%; in series [6], 30.6%.

As to `COc1ccc2c(c1)c(CC(=O)O)c(C)n2C(=O)c1ccc(Cl)cc1` [INDOMETHACIN], the inhibition in vivo at 10 mg/kg in series [7] came to 11.7%; in [8], 32.3%; in series [9], 20.5%; in [10] it was 52.7%; in series [11], 44.1%; in series [12], 57.5%.

In the case of `N#CC1=C(N)C2=C(c3ccccc3)C(c3ccccc3)=NNC2[Se]1` (centres undefined), the inhibition in vivo at 10 mg/kg in series [7] was determined as 8.8%; in series [8] it was 29.4%; in series [9], 9.9%; in series [10], 36.1%; in [11], 29.4%; in series [12] it was 44.4%. In addition, the Activity in series [1] worked out at 77.9%; in series [2], 79.8%; in series [3], 67.9%; in series [4], 75.5%; in series [5] it was 65.3%; in [6], 75.5%.
